The values below come from US5658925A, “Aminobenzoic acid derivatives” (Eisai Co., Ltd., priority 1993, dated 1997).

In test [1] the test system is cisplatin-induced vomiting. The test is described as follows: Activity against cisplatin-induced vomiting of beagle. Type of test: in vivo. The note with it: through the vein of forefoot, one hour after 3 mg/kg cisplatin, 5-hour period. On the procedure: [Experimental Example 2] Activity against cisplatin-induced vomiting of beagle
Beagles weighing 7 to 12 kg were used. 3 mg/kg of cisplatin (a product of Sigma) (1 ml/kg of physiological saline) was administered to each beagle through the vein of one of its forefeet. One hour after the administration, physiological saline (0.2 ml/kg) was administered to a control group of beagles and a solution of a test compound in physiological saline was administered to a test group of beagles, each through the vein of the other forefoot. The frequency of vomiting observed over a 5-hour period from the administration of cisplatin was recorded and the inhibitory ratio of the test compound was calculated according to the following formula.

For test [2], the system named is gastric emptying function. The test is described as follows: Activity for increasing gastric emptying function. Format: in vivo, rat (Fischer male). The note with it: oral, one hour before test food, *: minimum effective dose. How it is done:
[Experimental Example 3] Activity for increasing gastric emptying function
This experiment was made according to the method of Decktor et al. [see Eur. J. Pharmacol., 147, 313-316 (1988)]. Fischer male rats (weight: 160 to 180 g) were fasted for 18 hours before 3 ml of a test food comprising methylcellulose, beef bouillon, casein, sugar and corn starch was orally administered to each rat. One hour after the administration, the stomach was extirpated from each rat. The gastric emptying ratio was calculated from the weight of the test food remaining in the stomach. The percentage increment of the gastric emptying function was determined by comparing the gastric emptying ratio of a medicated rat with that of a control rat. Each test compound (5 ml/kg) was orally administered one hour before the administration of the test food. BRL 24924 was used as a control in this experiment.

Test [3] has as its target T1, serotonin 3 (Cavia porcellus, UniProt O70212).
T1 construct: from tissue; host or cells: nonterminal ileum of Hartley male guinea pig
T1 sequence (O70212 20-490): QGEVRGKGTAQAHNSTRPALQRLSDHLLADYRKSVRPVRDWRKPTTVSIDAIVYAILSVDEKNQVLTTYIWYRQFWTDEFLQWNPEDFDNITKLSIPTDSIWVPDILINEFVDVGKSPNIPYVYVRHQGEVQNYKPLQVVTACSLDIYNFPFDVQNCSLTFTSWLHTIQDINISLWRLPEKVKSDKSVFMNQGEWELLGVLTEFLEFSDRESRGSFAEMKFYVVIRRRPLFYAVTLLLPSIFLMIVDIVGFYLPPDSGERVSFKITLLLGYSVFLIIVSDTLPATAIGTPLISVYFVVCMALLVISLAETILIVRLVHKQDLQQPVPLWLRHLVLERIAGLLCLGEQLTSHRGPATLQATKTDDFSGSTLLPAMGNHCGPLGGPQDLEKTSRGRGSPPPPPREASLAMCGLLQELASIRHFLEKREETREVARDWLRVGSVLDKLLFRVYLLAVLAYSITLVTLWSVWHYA
The test is described as follows: Antagonism against 2-methyl-serotonin-induced contraction of ileum (serotonin 3 antagonism). The note with it: guinea pig nonterminal ileum, vs 2-methylserotonin, 30 minutes with test compound, 37° C.; read-out: pA2 (converted). Format: cell-based, guinea pig (Hartley male). How it is done:
[Experimental Example 1] Antagonism against 2-methyl-serotonin-induced contraction of ileum (serotonin 3 antagonism)
This experiment was made according to the method of Sanger et al. [see Eur. J. Pharmacol., 159, 113-124 (1989)]. The nonterminal ileum of a Hartley male guinea pig was suspended in the Krebs solution (37° C.) by applying a load of 0.5 g, and a gaseous mixture comprising 95% of oxygen and 5% of carbon dioxide was passed through the solution. The contraction of the ileum was isometrically determined. After allowing the ileum to stand for one or more hours for stabilization, a solution of a test compound was added to the solution, and after 30 minutes, 2-methylserotonin was noncumulatively added. The pA2 value was calculated from the rightward shift of the dose-response curve of the 2-methylserotonin-induced contraction caused by the test compound according to the method of Rossum et al. [see Arch. Int. Pharmacodyn. 143, 299(1963)]. BRL 24924 (Renzapride) was used as a control in this experiment.
The structural formula of BRL 24924 is as follows: [drawing 19]

In test [4] the target is T2, serotonin 4 (Rattus norvegicus, UniProt Q62758).
T2 construct: The esophagus of a rat was extirpated and freed from the outer tunica propria to obtain the muscular layer of mucosa; from tissue; host or cells: muscular layer of mucosa of rat esophagus
The test is described as follows: Effect of relaxing the contraction of muscular layer of esophageal mucosa of rat by stimulation with carbachol (activity of serotonin 4 as agonist). Format: cell-based. The note with it: 50% relaxation of maximum contraction caused by 1 μM carbachol, cumulative addition, 37° C.; read-out: Effect of relaxing the muscular layer of esophageal mucosa of rat EC50. How it is done:
This experiment was made according to the method of Baxter et al. [see Naunyn-Schmiedeberg's Arch. […] The esophagus of a rat was extirpated and freed from the outer tunica propria to obtain the muscular layer of mucosa. […] A load of 0.5 g was applied to each sample and the reaction was recorded isometrically. 1 μM of carbachol was added to each sample to cause contraction, followed by the cumulative addition thereto of a solution of a test compound. The effect of the test compound was determined as the ratio (%) of relaxation based on the maximum contraction caused by carbachol.

T2 sequence (Q62758 whole entry): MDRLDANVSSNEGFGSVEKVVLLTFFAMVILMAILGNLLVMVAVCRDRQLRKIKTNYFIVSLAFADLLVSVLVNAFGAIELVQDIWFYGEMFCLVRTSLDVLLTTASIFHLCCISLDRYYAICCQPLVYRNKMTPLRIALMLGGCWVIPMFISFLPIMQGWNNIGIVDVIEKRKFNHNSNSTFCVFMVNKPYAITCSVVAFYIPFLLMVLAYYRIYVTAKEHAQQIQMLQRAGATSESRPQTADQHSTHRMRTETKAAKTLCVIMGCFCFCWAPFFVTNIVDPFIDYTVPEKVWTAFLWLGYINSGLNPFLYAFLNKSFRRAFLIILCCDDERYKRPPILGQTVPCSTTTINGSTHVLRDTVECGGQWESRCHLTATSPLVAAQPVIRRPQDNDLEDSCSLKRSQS

Regarding `CC#C[C@H](C)Oc1cc(N)c(Cl)cc1C(=O)NC1CCN2CCCC1C2` (single isomer, unassigned) [31 fraction 2], the “Inhibitory ratio against cisplatin-induced vomiting (%)” value is 63% in test [1] (0.03 mg/kg) and 92% in test [1] (0.1 mg/kg). Moreover, the “Percentage increment of gastric emptying function (%)” value in test [2] (0.01 mg/kg) is 4.5%; in test [2] (0.03 mg/kg), 24.6%; in test [2] (0.1 mg/kg), 25.8%; in test [2] (0.3 mg/kg), 33.2%. Moreover, the Kb in test [3] was 5.01 nM. For the same compound, the EC50 in test [4] was 190 nM.
For the compound `COc1cc(N)c(Cl)cc1C(=O)NC1CCN2CCCC1C2` (stereo not drawn) [BRL 24924, Renzapride, reference compound], the “Inhibitory ratio against cisplatin-induced vomiting (%)” value was 19% in test [1] (0.03 mg/kg) and 61% in test [1] (0.1 mg/kg). The “Percentage increment of gastric emptying function (%)” value in test [2] (0.1 mg/kg) worked out at 1.9%; in test [2] (0.3 mg/kg), 6.5%; in test [2] (1 mg/kg), 18.5%. The Kb in test [3] was 251 nM. In test [4], the EC50 worked out at 300 nM.
